Test results reported in patent US20150183737A1, “COMPOSITIONS AND METHODS FOR SUBSTRATE-SELECTIVE INHIBITION OF ENDOCANNABINOID OXYGENATION” (Vanderbilt University, priority 2012, published 2015).
“Also recorded” adds a separate entry of the source. Where two headings read alike, the source gives them in different places.

Key:
[1] = target: T1, COX-2 (Mus musculus, UniProt Q05769); assay: Inhibition of COX-2 oxygenation by acetaminophen and its metabolites; format: biochemical
T1 sequence (Q05769 18-604): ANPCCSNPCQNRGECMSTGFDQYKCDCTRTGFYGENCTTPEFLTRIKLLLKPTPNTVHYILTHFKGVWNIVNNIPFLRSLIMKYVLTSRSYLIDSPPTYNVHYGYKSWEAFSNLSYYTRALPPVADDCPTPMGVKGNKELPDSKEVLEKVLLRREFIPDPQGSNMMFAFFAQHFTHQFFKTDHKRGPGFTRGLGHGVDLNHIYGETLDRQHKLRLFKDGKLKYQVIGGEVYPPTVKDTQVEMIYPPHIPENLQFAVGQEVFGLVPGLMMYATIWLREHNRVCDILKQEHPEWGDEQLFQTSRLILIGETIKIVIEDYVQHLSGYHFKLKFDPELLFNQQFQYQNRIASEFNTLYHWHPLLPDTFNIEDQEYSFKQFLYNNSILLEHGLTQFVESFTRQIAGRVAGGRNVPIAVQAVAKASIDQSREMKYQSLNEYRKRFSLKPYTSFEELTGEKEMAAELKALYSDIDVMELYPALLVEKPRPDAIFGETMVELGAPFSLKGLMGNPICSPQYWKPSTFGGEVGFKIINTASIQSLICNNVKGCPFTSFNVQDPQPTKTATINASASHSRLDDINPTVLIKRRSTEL

[2] = target: T2, COX-2 in lipopolysaccharide-activated RAW264.7 cells (Mus musculus, UniProt Q05769); assay: 2-AG oxygenation by lipopolysaccharide-activated RAW264.7 cells; format: cell-based
T2 construct: endogenous in cells; host or cells: RAW 264.7 macrophages stimulated with LPS (and GM-CSF / interferon γ where described)
T2 sequence (Q05769 18-604): T1 sequence (Q05769 18-604)

[3] = Chiral HPLC of (R)-profen-treated DRG extracts (racemization); format: in vitro ADME, mouse
Source text: A Daicel chiralpak chiral column was used in conjunction with a normal-phase HPLC gradient to separate the profen enantiomers.

[4] = target: T3, FAAH (Homo sapiens, UniProt O00519); details: in vitro; Bishay et al., 2010; cited from earlier work
T3 sequence (O00519 1-579): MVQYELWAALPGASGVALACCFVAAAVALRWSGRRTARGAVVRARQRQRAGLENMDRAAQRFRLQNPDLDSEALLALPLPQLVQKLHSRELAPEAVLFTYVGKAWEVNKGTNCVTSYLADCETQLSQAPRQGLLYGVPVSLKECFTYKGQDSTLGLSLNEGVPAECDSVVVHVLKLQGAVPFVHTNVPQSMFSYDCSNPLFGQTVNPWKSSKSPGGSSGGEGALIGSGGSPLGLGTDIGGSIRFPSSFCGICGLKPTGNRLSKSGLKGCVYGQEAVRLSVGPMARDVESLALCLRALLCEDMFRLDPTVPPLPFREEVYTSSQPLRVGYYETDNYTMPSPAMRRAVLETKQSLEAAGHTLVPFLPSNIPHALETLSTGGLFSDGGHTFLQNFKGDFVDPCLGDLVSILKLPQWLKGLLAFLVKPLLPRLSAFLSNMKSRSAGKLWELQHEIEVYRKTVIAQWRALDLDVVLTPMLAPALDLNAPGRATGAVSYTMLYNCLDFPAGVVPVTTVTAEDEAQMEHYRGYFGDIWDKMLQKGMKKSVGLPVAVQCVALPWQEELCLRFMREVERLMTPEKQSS

[5] = In vivo mouse assay: plasma levels; design: species or system C57BL/6 mice; details: male, C57BL/6, mouse, plasma, intraperitoneal; 10 mg/kg i.p. at 0, 8, 24, 32, 48 and 56 hr; sixteen hr after the last injection
[6] = target: COX-2 in dorsal root ganglion cells (DRGs) (Mus musculus, UniProt Q05769)
Description: Treatment with inflammatory stimuli was performed as described herein below.
DRGs were harvested from E14 mouse embryos and plated onto collagen-coated dishes. After being cultured for 3-5 days, they were treated overnight with granulocyte-macrophage colony-stimulating factor followed by lipopolysaccharide, interferon γ, and 10 μM 15(S)-hydroxy-5,8,11,13-eicosatetraenoic acid for 6 hours.
DRGs, activated as above for 3 hours were treated with ionomycin for an additional 3 hours to stimulate substrate release.
The amounts of prostaglandin, PG-G, and PG-EA were quantified using stable-isotope dilution methods with labeled internal standards.

[7] = target: T4, purified murine COX-2 (Mus musculus, UniProt Q05769); details: chiral profens; at 10 μM inhibitor; data taken from reference 10; cited from earlier work
T4 sequence (Q05769 18-604): T1 sequence (Q05769 18-604)

[8] = tested on: ICR mice; assay: Novel open field test; format: in vivo; details: 10 mg/kg
Description: Animals were tested for open-field activity in a novel environment one hour after i.p. injection of compound as described in Sumislawski et al., 2011. Briefly, one-hour sessions were performed using automated experimental chambers (27.9 27.9 cm; MEDOFA-510; MED Associates, Ga., Vermont, United States of America) under constant illumination within a sound-attenuated room. Analysis of open field activity was performed using Activity Monitor v5.10 (MED Associates).

[9] = tested on: brain eCB, AA and PG levels; assay: Brain eCB, NAE, MAG, AA and PG levels after i.p. injection; format: in vivo, mice; details: 10 mg/kg i.p., 2 hours
Description: 5-7 week old male ICR mice were used for all experiments with the exception of knockout animals (Harlan, Indianapolis, Ind., United States of America). Mice were housed 5 per […]. All behavioral tests were conducted during the light cycle between 0900 and 1700. KO and WT littermate controls for FAAH^(−/−) and COX-2^(−/−) mice were derived from heterozygote breeding pairs, bred and genotyped as described in Uddin et al., 2011. CB1^(−/−) mice were bred from homozygote breeding pairs and genotyped as described in Pan et al., 2008. Mice were group-housed on a 12:12 light-dark cycle (lights on at 06:00), with food and water available ad libitum. All animal studies were approved by the Vanderbilt Institutional Animal Care and Use Committee and conducted in accordance with the Guide for the Care and Use of Laboratory Animals of the United States National Institutes of Health.
(§1) Mice were sacrificed by cervical dislocation and decapitation. The brain, lungs, liver, stomach, small intestines, and kidneys were then rapidly removed and frozen on a metal block in dry ice. The tissue was then placed in a tube and stored at −80° C. until extraction, usually one day after harvesting. For PG and eCB analysis, lipid extraction from tissue was carried out as described in Patel et al., 2009.
(§2) Analytes were quantified using LC-MS/MS on a Quantum triple-quadrupole mass spectrometer in positive-ion mode using selected reaction monitoring. Detection of eicosanoids was performed as described in Kingsley & Marnett, 2007. For fatty acid analysis the mobile phases used were 80 μM AgOAc with 0.1% (v/v) acetic acid in H2O (solvent A) and 120 μM AgOAc with 0.1% (v/v) acetic acid in MeOH (solvent B). The analytes were eluted using a gradient from 20% A to 99% B over 5 minutes. The transitions used were m/z 300→282 for PEA, m/z 328→310 for SEA, m/z 434→416 for OEA, m/z 456→438 for AEA, m/z 464→446 for AEA-d8, m/z 331→257 for 2-PG, m/z 359→285 for 2-SG, m/z 463→389 for 2-OG, m/z 485→411 for 2-AG, m/z 493→419 for 2-AG-d8, m/z 519→409 for AA, and m/z 527→417 for AA-d8. Peak areas for the analytes were normalized to the appropriate internal standard and then normalized to tissue mass for in vivo samples.

[10] = tested on: ICR mice; assay: Elevated plus-maze (EPM); format: in vivo; details: 10 mg/kg
[11] = tested on: ICR mice; assay: Light-dark box; format: in vivo; details: 10 mg/kg
[12] = tested on: peripheral tissue eCB, NAE, MAG and PG levels; assay: Peripheral tissue NAE, MAG and PG levels after i.p. injection; format: in vivo, mice; details: liver
Description: as §1
as §2, with “samples. […]” for “samples.”

[13] = tested on: ICR mice; assay: Rectal temperature, catalepsy and hot plate antinociception; details: 10 mg/kg i.p.

Compound: CCCCC/C=C\C/C=C\C/C=C\C/C=C\CCCC(=O)Nc1ccc(O)cc1 [AM-404, N-(4-hydroxyphenyl)arachidonoylamide]
- Selectivity for inhibition of 2-AG and AEA oxygenation compared to AA oxygenation [1]: 700 fold
- Dissociation from COX-2 ([1]; in the absence of substrate): slow
- Dissociation from COX-2 ([1]; in the presence of AA): rapid
- IC50 ([1]; read-out: IC50 for inhibition of 2-AG oxygenation): 0.097 µM
- IC50 [2]: 0.046 µM

Compound: C[C@@H](C(=O)O)c1ccc(-c2ccccc2)c(F)c1 [Compound 7a, (R)-flurbiprofen]
- Conversion to the (S)-enantiomer [3]: did not occur
- IC50 [4]: > 1000 µM
- concentration at 72 h [5]: 20 µM

Compound: COc1ccc2cc([C@@H](C)C(=O)O)ccc2c1 [Compound 7b, (R)-naproxen]
- Synthesis of prostaglandins in DRGs ([6]; at concentrations that inhibited PG-G and PG-EA synthesis): did not inhibit
- Amounts of AEA and 2-AG in cell extracts ([6]; stimulated DRGs): increased
- % Inhibition AA [7]: 0%

Compound: CC(C)Cc1ccc([C@@H](C)C(=O)O)cc1 [Compound 7c, (R)-ibuprofen]
- Conversion to the (S)-enantiomer ([3]; DRG extracts, chiral HPLC): did not occur

Compound: O=C(Nc1cccnc1)N1CCC(Cc2cccc(Oc3ccc(C(F)(F)F)cn3)c2)CC1 [PF-3845, N-3-pyridinyl-4-[[3-[[5-(trifluoromethyl)-2-pyridinyl]oxy]phenyl]methyl]-1-piperidinecarboxamide, reference compound]
- Center distance travelled and center time in the open-field arena [8]: increased
- Brain levels of NAEs other than AEA [9]: robustly increased
- Brain AEA levels ([9]; vs vehicle): robustly increased
- Open arm latency [10]: significantly reduced; also recorded: decreased
- Other EPM parameters (open arm time, total distance traveled) [10]: did not affect; also recorded: did not increase
- Light-zone time [11]: significantly increased
- Number of light-zone entries [11]: significantly increased
- Overall locomotor activity in the light-dark box [11]: without significantly affecting
- Liver NAE levels [12]: robust increases

Compound: Cc1c(C(=O)c2cccc3ccccc23)c2cccc3c2n1[C@H](CN1CCOCC1)CO3 [Win-55212-2]
- Antinociception in the hot plate test [13]: induced
- Catalepsy [13]: induced
- Hypothermia (rectal temperature) [13]: induced
